In patent publication US5912266A, “Beta2 integrin cell adhesion molecule inhibitors” (American Home Products Corporation, priority 1997, dated 1999):
Values joined by “and” are separate entries in the source; they are usually repeats but may differ in a detail not shown here. Equal values may be shown once.

Test system: β1 integrin
Assay: Adhesion of activated, β1 integrin-expressing U937 cells to human fibronectin
Type: cell-based
Settings: for Percent Cells Bound: single well
Experimental: U937 cells, a human monocyte-like, histiocytic lymphoma cell line, was acquired from American Type Culture Collection (ATCC No. CRL-1593). The cells were grown in the culture media described in Example I, materials. Cells were subcultured when the cell density was approximately 1×10^6 cells per ml. The β1 integrins on U937 cells were activated to bind to fibronectin by the addition of PMN Buffer, described in Example I. The human fibronectin (Gibco, No. XOO1) was diluted to 3.5 μg/ml with dPBS. A 1% Bovine Serum Albumin (BSA; Fraction V, ICN Corp., No. 810032) solution was prepared in dPBS and was sterile filtered using a […] disposable filter apparatus (Corning No. 25932-200) before use. The 1% BSA solution was used for blocking non-specific binding sites on the plastic wells of the assay plate. The assay plates used were Corning 96-well EIA/RIA plates (No. 25801).
350 ng of human fibronectin contained in 100 μl of dPBS was added to wells of the assay plate. The control wells were filled with dPBS only. The assay plate was incubated at room temperature for exactly two hours to allow the fibronectin to bind to the assay wells. The fibronectin solution was aspirated from the wells of the assay plate and the wells were washed 3× with 200 μl/well of dPBS. The assay wells were filled with the 1% BSA solution. Additional wells, not coated with fibronectin, were also filled with the 1% BSA solution; these wells were used to measure non-specific cell adherence to the plastic assay plate. The assay plate was incubated for 30 minutes at room temperature. The 1% BSA solution was removed from the wells of the assay plate by aspiration using a multichannel pipettor. The assay wells were washed 3× with 200 μl/well of dPBS. Approximately 50 μl of dPBS was added to the assay wells to ensure that they would not dry out prior to the initiation of the assay.
U937 cells were harvested from culture, washed and labeled with calcein AM fluorescent dye as outlined in Example I, except that the concentration of calcein used to label U937 cells was 12.5 μM and cells were sedimented by centrifugation at 1000 rpm for 5 minutes. After the final wash (see Example I), the U937 cells were resuspended in ice-cold PMN Buffer to 1.25×10^5 cells/40 μl. The cell suspension was placed in the dark at room temperature until needed. The asperlin solutions were prepared as described in Example I.
The 50 μl of dPBS remaining in the wells of the assay plate was removed by inverting the assay plate and tapping on paper toweling. 50 μl of the serially diluted asperlin solution was added to wells of the assay plate. Control wells received PMN buffer containing 2% DMSO and the assay plate was incubated for 10 minutes at room temperature.
Calcein labeled cells, that had been gently mixed by swirling, were added to the wells in 40 μl volumes equal to 1.25×10^5 cells/well and 10 μl of PMA solution was immediately added to the wells of the assay plate and the assay was continued as described in Example 1. 100 μl of PMN buffer was added to all wells of the assay plate. The fluorescence of the adherent, activated β1 integrin expressing cells was measured using a fluorescent plate reader, as described in Example I.
The percentage of β1 integrin expressing cells adhering to fibronectin coated wells was quantitated by the equation: % Cells Bound=((Bound Cell Fluorescence-Average Bound Fluorescence of the Non-specific Binding Control).div.Total Cell Fluorescence)×100.

## CC(=O)OC1C=CC(=O)OC1C1OC1C [Asperlin, 6,7-Anhydro-2,3,8-trideoxy-D-galacto-oct-2-enoic acidδ-lactone 4-acetate]
Asperlin 1.56 μg/ml
  % Inhibition Cell Adhesion: -9%
  Average Percent Bound: 75%
  Bound Cell Fluorescence: 3002 fluorescence units/well and 3140 fluorescence units/well and 3132 fluorescence units/well
  Percent Cells Bound: 75% and 76% and 74%
Asperlin 3.125 μg/ml
  % Inhibition Cell Adhesion: -9%
  Average Percent Bound: 75%
  Bound Cell Fluorescence: 3132 fluorescence units/well and 3140 fluorescence units/well and 2895 fluorescence units/well
  Percent Cells Bound: 76% and 75% and 73%
Asperlin 6.25 μg/ml
  % Inhibition Cell Adhesion: 10%
  Average Percent Bound: 62%
  Bound Cell Fluorescence: 2292 fluorescence units/well and 2344 fluorescence units/well and 2529 fluorescence units/well
  Percent Cells Bound: 60% and 65%
Asperlin 12.5 μg/ml
  % Inhibition Cell Adhesion: -1%
  Average Percent Bound: 70%
  Bound Cell Fluorescence: 2331 fluorescence units/well and 2683 fluorescence units/well and 2985 fluorescence units/well
  Percent Cells Bound: 64% and 71% and 74%
Asperlin 25 μg/ml
  % Inhibition Cell Adhesion: 0%
  Average Percent Bound: 69%
  Bound Cell Fluorescence: 2404 fluorescence units/well and 2870 fluorescence units/well and 2969 fluorescence units/well
  Percent Cells Bound: 61% and 71% and 75%
Asperlin 50 μg/ml
  % Inhibition Cell Adhesion: -6%
  Average Percent Bound: 73%
  Bound Cell Fluorescence: 2391 fluorescence units/well and 2791 fluorescence units/well and 3203 fluorescence units/well
  Percent Cells Bound: 68% and 74% and 77%
Asperlin 100 μg/ml
  % Inhibition Cell Adhesion: 0%
  Average Percent Bound: 69%
  Bound Cell Fluorescence: 2466 fluorescence units/well and 2854 fluorescence units/well and 3194 fluorescence units/well
  Percent Cells Bound: 61% and 70% and 75%
Asperlin 200 μg/ml
  % Inhibition Cell Adhesion: 3%
  Average Percent Bound: 67%
  Bound Cell Fluorescence: 2222 fluorescence units/well and 2736 fluorescence units/well and 2846 fluorescence units/well
  Percent Cells Bound: 61% and 68% and 71%
Summary of Table II
  Effect on adhesion of β1 integrin expressing cells to fibronectin (in words): does not block the adhesion of β1 integrin expressing cells to fibronectin
